Series [1] deals with T1, xanthine oxidase (derived from butter milk) (Bos taurus, UniProt P80457).
T1 construct: xanthine oxidase (derived from butter milk, manufactured by Sigma); purchased Sigma; host or cells: buttermilk (natural source)
Kind of series: Xanthine oxidase-inhibitory activity (pterin oxidation, fluorescence). In kind it is biochemical. Conditions: xanthine oxidase 0.03 units/ml, pterin 5 μM. As to the method:
A test compound was dissolved in DMSO (manufactured by Nakarai) so as to be a concentration of 10 mM and then used after the concentration was adjusted to an aimed one at use.
The evaluation of xanthine oxidase-inhibitory activity of the compound of the invention was carried out using a method described in a document (Free Radic. Biol. Med. 6, 607-615, 1992) with partial modification. Namely, xanthine oxidase (derived from butter milk, manufactured by Sigma) was adjusted to 0.03 units/ml using a 50 mM phosphate buffer and was added to a 96-well plate in an amount of 50 μl/well. Each test compound diluted so as to be a final concentration was added thereto in an amount of 2 μl/well, followed by treatment at room temperature for 20 minutes. Pterin (manufactured by Sigma) was added thereto so as to be a final concentration of 5 μM, followed by reaction at room temperature for 10 minutes. Measurement was performed using a microplate reader saphire (manufactured by Tecan) under conditions of excitation at 345 nm and emission at 390 nm (pterin was oxidized by xanthine oxidase into isoxanthopterin, which emitted a light under the conditions).
The concentration of the test compound at which 50% inhibition was observed (IC50 value) was calculated, the emissions of isoxanthopterin under conditions of the presence or absence of xanthine oxidase being 0% inhibition and 100% inhibition, respectively.

The test system of another series is male Wistar rats. Kind of series: Trinitrobenzenesulfonic acid (TNBS)-induced enteritis-inhibitory action. It is filed as in vivo, rat. The settings on record: 3 mg/kg oral once a day, 21st day. Here is the method: The effectiveness of the compound of the invention on an enteritis model can be also evaluated by a model using trinitrobenzenesulfonic acid (TNBS) as an inducing agent instead of acetic acid (Cell. Mol. Biol, 38, 189-199, 1992). Thus, referring to the method described in the report, the enteritis-suppressing action of the compound of the invention was evaluated.
Namely, TNBS or physiological saline as a normal group was administered into the rectum of male Wistar rats of 200 to 250 g. Thereafter, a test compound or 0.5% methyl cellulose (control group) was orally administered once a day and dissection was performed on each administered group on 21st day. A part of the large intestine 2 to 7 cm from the anus side was cut out and incised. After feces were removed by means of tweezers, the part was washed and a score of morbid conditions was evaluated and tissue weight was measured. The score of morbid conditions and a tissue weight increase-suppressing ratio were calculated as in the evaluation method of the above acetic acid-induced enteritis-suppressing action.

The subject of the next series is ICR mice. Put plainly: Serum uric acid-lowering action after oral administration. In kind it is in vivo. Conditions: after 2 hours from oral administration, 1 mg/kg. As to the method:
A test compound was orally administered compulsorily to ICR mice using an oral sonde. After 2 hours, 6 hours, and, depending on the compound, further 24 hours from the administration, blood was collected from an abdominal aorta and then serum was separated in a usual manner. Serum uric acid was measured on an absorptiometer (SPECTRA MAX 190, manufactured by Molecular Device) by an uricase method using a uric acid-measuring kit (Uric Acid C-TestWako: Wako Pure Chemical Industries, Ltd.) and a uric acid-lowering ratio was determined according to the following equation. Uric acid-lowering ratio (%)=(Uric acid level of control animal−Uric acid level of test compound-administered animal)×100/Uric acid level of control animal

The test system of series [2] is pyrimidine synthetic pathway. Put plainly: Pyrimidine synthetic pathway-inhibitory action (influence on BUN level). The settings on record: oral administration of 30 mg/kg. It is filed as in vivo. The text has this:
Allopurinol which is an existing hyperuricemia therapeutic drug is known to cause renal dysfunction as an undesirable action. As mentioned previously, since allopurinol has a nucleic acid-like structure, as one cause thereof, it is presumed that it inhibits pyrimidine synthetic pathway. […] Thus, according to the method described in the document, the influence of the compounds of the invention on a BUN level was confirmed.

Data on 16 compounds can be found in US7612108B2, “2-phenylthiophene derivative” (Astellas Pharma Inc., priority 2004, dated 2009).

T1 sequence (P80457 whole entry): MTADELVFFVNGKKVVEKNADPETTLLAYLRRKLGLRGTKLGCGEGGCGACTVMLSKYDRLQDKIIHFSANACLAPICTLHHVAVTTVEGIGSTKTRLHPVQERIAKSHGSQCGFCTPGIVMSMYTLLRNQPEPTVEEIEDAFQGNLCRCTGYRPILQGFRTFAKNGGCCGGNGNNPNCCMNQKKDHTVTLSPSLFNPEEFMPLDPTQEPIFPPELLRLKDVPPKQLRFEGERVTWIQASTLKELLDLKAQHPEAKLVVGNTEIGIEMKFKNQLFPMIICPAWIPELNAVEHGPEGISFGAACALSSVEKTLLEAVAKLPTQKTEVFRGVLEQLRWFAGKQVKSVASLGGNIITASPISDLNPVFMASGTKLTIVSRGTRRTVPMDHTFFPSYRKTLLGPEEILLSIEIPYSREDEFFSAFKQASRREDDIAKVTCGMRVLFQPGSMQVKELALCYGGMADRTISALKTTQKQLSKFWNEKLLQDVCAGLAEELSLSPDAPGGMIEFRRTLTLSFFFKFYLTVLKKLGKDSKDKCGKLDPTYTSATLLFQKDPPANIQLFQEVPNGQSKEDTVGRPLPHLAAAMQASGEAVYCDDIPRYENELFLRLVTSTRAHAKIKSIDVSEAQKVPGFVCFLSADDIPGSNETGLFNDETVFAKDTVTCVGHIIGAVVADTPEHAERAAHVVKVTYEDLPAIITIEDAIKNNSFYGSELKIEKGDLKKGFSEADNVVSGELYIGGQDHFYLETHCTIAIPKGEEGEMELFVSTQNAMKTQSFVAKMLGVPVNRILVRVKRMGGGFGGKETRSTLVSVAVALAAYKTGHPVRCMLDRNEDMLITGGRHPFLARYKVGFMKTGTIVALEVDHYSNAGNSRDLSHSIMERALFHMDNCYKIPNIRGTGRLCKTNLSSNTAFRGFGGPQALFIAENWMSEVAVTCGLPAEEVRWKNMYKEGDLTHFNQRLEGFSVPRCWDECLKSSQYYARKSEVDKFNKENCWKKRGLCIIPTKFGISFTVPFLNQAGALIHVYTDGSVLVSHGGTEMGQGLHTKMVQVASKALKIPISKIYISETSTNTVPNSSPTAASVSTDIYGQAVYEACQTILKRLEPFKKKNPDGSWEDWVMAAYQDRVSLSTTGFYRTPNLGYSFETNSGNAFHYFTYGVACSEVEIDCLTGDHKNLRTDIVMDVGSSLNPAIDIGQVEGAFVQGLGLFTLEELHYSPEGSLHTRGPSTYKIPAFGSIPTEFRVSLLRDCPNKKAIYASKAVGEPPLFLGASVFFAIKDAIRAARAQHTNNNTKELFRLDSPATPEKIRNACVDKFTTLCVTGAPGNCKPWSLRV

In the case of `N#Cc1cc(-c2ccc(C(=O)O)s2)ccc1OCCn1cccc1` [Example 22], the IC50 in series [1] is 5.1 nM.

Compound `N#Cc1cc(-c2ccc(C(=O)O)s2)ccc1OCc1ccccc1` [Example 24] yielded an IC50 in series [1] of 2.5 nM.

For `N#Cc1cc(-c2cc(F)c(C(=O)O)s2)ccc1OC/C=C/c1ccccc1` [Example 47], the IC50 in series [1] amounted to 3.7 nM.

`CC(C)COc1ccc(-c2ccc(-c3nnn[nH]3)s2)cc1[N+](=O)[O-]` [Example 5, 5-[5-(4-isobutoxy-3-nitrophenyl)-2-thienyl]-1H-tetrazole] showed a concentration for half-maximal inhibition (IC50) in series [1] of 9.3 nM.

The compound `CC(C)COc1c(F)cc(-c2ccc(C(=O)O)s2)cc1C#N` [Example 54] yielded an IC50 in series [1] of 1.5 nM.

`CC(=O)c1cc(-c2ccc(C(=O)O)s2)ccc1OC1CCCC1` [Example 33] had a half-inhibitory concentration (IC50) in series [1] of 5.9 nM.

`N#Cc1cc(-c2ccc(C(=O)O)s2)ccc1OCc1cccnc1` [Example 19] registered an IC50 in series [1] of 2.8 nM.

`CC(C)COc1ccc(-c2cc(F)c(C(=O)O)s2)cc1C#N` [Example 4, sodium 5-(3-cyano-4-isobutoxyphenyl)-3-fluorothiophene-2-carboxylate] had an IC50 in series [1] of 2.2 nM.

Consider `CC(C)COc1ccc(-c2ccc(C(=O)O)s2)cc1[N+](=O)[O-]` [Example 3, 5-(3-nitro-4-isobutoxyphenyl)thiophene-2-carboxylic acid], for which, in series [1], the IC50 came to 6.9 nM.

In series [1], `N#Cc1cc(-c2ccc(C(=O)O)s2)ccc1N1CCCCC1` [Example 27] gave an IC50 of 1.8 nM.

`N#Cc1cc(-c2ccc(C(=O)O)s2)ccc1Oc1ccccc1` [Example 34] gave an IC50 in series [1] of 6.3 nM.

For `CC(C)CSc1ccc(-c2ccc(C(=O)O)s2)cc1C#N` [Example 9, sodium 5-[3-cyano-4-(isobutylthio)phenyl]thiophene-2-carboxylate], the IC50 in series [1] came to 2.9 nM.

Consider `CC1CCN(c2ccc(-c3ccc(C(=O)O)s3)cc2C#N)CC1` [Example 30], for which the midpoint of inhibition in series [1], the IC50, lay at 2 nM.

In the case of `CCCOc1ccc(-c2ccc(C(=O)[O-])s2)cc1C#N.[Na+]` [Example 1, sodium 5-(3-cyano-4-n-propoxyphenyl)thiophene-2-carboxylate], the “suppression of intestinal tissue weight increase” value in the series with male Wistar rats is at least 70%. Besides, in series [1], the 50% inhibitory concentration (IC50) turned out to be 3.2 nM. In the series with ICR mice, the uric acid-lowering ratio was 66%. In addition, in series [2], the “inhibitory action on pyrimidine synthetic pathway (influence on BUN level)” value is “no inhibitory action”.

Turning to `CCCCN(C)c1ccc(-c2ccc(C(=O)O)s2)cc1C#N` [Example 8, sodium 5-{4-[butyl(methyl)amino]-3-cyanophenyl)thiophene-2-carboxylate], the 50% inhibitory concentration (IC50) in series [1] worked out at 4.1 nM.

In series [1], `N#CCCCOc1ccc(-c2ccc(C(=O)O)s2)cc1C#N` [Example 23] gave an IC50 of 13 nM.

By IC50 is commonly meant the concentration that inhibits the measured activity by half.
